Data from EP3345917A1, “ANTIPROTOZOAL COMPOUNDS” (Bacoba AG, priority 2017, dated 2018).
Non-standard residues stand in square brackets, D forms with d. Residues, ends and D or L forms follow the SMILES beside them. *: point of attachment. NH((S)CH(Me)CH2NMe2) = C[C@@H](CN(C)C)N*; NH(1-CH2NMe2-cBu) = CN(C)CC1(N*)CCC1; Gly(octyl) = CCCCCCCC[C@H](N)C(=O)O; Oxazole4CO(2-Me) = Cc1nc(C(=O)*)co1; X16 = COc1ccc2cc(C(=O)*)c(=O)oc2c1; Hexanoyl = CCCCCC(=O)*; Aib = CC(C)(N)C(=O)O; X14 = O=C(c1cocn1)*; βAla = NCCC(=O)O; NHcPr = C1CC1N*

Legend:
[1] = test system: Trypanosoma brucei rhodesiense (STIB 900 strain); assay: Alamar Blue assay against Trypanosoma brucei rhodesiense grown in axenic medium; format: cell-based; settings: In vitro inhibition, read-out: T.b.rhod.
Description: (§1) Tests were done in triplicate.
Trypanosoma brucei rhodesiense (STIB 900) were grown in axenic medium as described by Baltz et al. (1985) The samples were tested using the Alamar Blue assay protocol (Baltz T et al. EMBO J 1985; 4:1273-1277) to determine the 50% inhibitory concentration (IC50). […] Melarsoprol (Arsobal®, Sanofi-Aventis, Switzerland) was used as a reference drug (IC50= 0.03 ± 0.01 µM). Its purity was over 95 %, as was certified by the supplier. The IC50 values were calculated by using Softmax Pro software (Molecular Devices Cooperation, Sunnyvale, CA).

[2] = test system: Trypanosoma cruzi trypomastigote forms (Tulahuen strain); assay: Intracellular Trypanosoma cruzi assay in L6-cells, beta-galactosidase/CPRG readout; format: cell-based; settings: In vitro inhibition, read-out: T.cruzi.
Description: as §1
Trypanosoma cruzi trypomastigote forms (Tulahuen strain C2C4 containing β-galactosidase (Lac Z) gene) were cultured as described by Buckner et al. (Buckner FS et al. Antimicrob Agents Ch1996; 40: 2592-2597) in rat myoblast cells (L6-cells). […] After incubation, the substrate chlorophenyl red β-D-galactopyranoside agent CPRG/Nonident was added to all wells and a color change was developed within 2 to 6 h. The plates were read photometrically at 540 nm (Molecular Devices). Data were evaluated and IC50 values calculated using Softmax Pro software (Molecular Devices).

[3] = test system: Axenically grown Leishmania donovani amastigotes (strain MHOM/ET/67/L82); assay: Axenic Leishmania donovani amastigote resazurin assay; format: cell-based; settings: In vitro inhibition, read-out: L.don. ax
Description: as §1
Axenically grown Leishmania donovani amastigotes (strain MHOM/ET/67/L82) were grown and tests were done as previously described using the resazurin assay (Räz B et al. Acta Tropica 1997, 68:139-147). The plates were developed for 2-4 hours and read on a Spectramax Gemini XS micro plate fluorometer (Molecular Devices Cooperation) using an excitation wavelength of 536 nm and emission wavelength of 588 nm. Fluorescence development was measured and expressed as percentage of the negative control. […] Data were transferred to the graphic programme Softmax Pro (Molecular Devices), with which IC50 values were calculated.

Plasmodium falciparum = assay: 3H-hypoxanthine incorporation assay against Plasmodium falciparum; format: cell-based; settings: In vitro inhibition, read-out: P.falc NF5
Description: as §1
IC50 values were calculated by linear interpolation.

[4] = Cytotoxicity assay on L6-cells (Alamar Blue); settings: rat, Cytotox L6, Cytotoxicity against rat myoblast cells (L6)

Structure (SMILES)	IC50 [1] [nM]	IC50 [2] [nM]	IC50 [3] [nM]	IC50 (Plasmodium falciparum) [nM]	IC50 at 70 h [4] [nM]
CCCCCCCC[C@H](NC(=O)[C@H](C)NC(=O)CCCCC)C(=O)N[C@H](C(=O)NC(C)(C)C(=O)N[C@@H](CC(C)C)C(=O)N[C@@H](CC(C)C)C(=O)NC(C)(C)C(=O)NC(C)(C)C(=O)NCCC(=O)N[C@@H](C)CN(C)C)[C@@H](C)O [Compound 5605, (2S)-N-[(1S,2R)-1-[(1-{[(1S)-1-{[(1S)-1-{[1-({1-[(2-{[(2S)-1-(dimethylamino)propan-2-yl]carbamoyl}ethyl)carbamoyl]-1-methylethyl}carbamoyl)-1-methylethyl]carbamoyl}-3-methylbutyl]carbamoyl}-3-methylbutyl]carbamoyl}-1-methylethyl)carbamoyl]-2-hydroxypropyl]-2-[(2S)-2-hexanamidopropanamido]decanamide] (Hexanoyl-A[Gly(octyl)]T[Aib]LL[Aib][Aib][βAla]-{NH((S)CH(Me)CH2NMe2)})	22.8	1840	78.6	39.3	2480
CCCCCCCC[C@H](NC(=O)c1cocn1)C(=O)N[C@H](C(=O)NC(C)(C)C(=O)N[C@@H](CC(C)C)C(=O)N[C@@H](CC(C)C)C(=O)NC(C)(C)C(=O)NC(C)(C)C(=O)NCCC(=O)N[C@@H](C)CN(C)C)[C@@H](C)O [Compound 5639, (2S)-N-[(1S,2R)-1-[(1-{[(1S)-1-{[(1S)-1-{[1-({1-[(2-{[(2S)-1-(dimethylamino)propan-2-yl]carbamoyl}ethyl)carbamoyl]-1-methylethyl}carbamoyl)-1-methylethyl]carbamoyl}-3-methylbutyl]carbamoyl}-3-methylbutyl]carbamoyl}-1-methylethyl)carbamoyl]-2-hydroxypropyl]-2-[(1,3-oxazol-4-yl)formamido]decanamide] (X14-[Gly(octyl)]T[Aib]LL[Aib][Aib][βAla]-{NH((S)CH(Me)CH2NMe2)})	22.5	5360	540	244	1640
CCCCCCCC[C@H](NC(=O)c1coc(C)n1)C(=O)N[C@H](C(=O)NC(C)(C)C(=O)N[C@@H](CC(C)C)C(=O)N[C@@H](CC(C)C)C(=O)NC(C)(C)C(=O)NC(C)(C)C(=O)NCCC(=O)N[C@@H](C)CN(C)C)[C@@H](C)O [Compound 5640, (2S)-N-[(1S,2R)-1-[(1-{[(1S)-1-{[(1S)-1-{[1-({1-[(2-{[(2S)-1-(dimethylamino)propan-2-yl]carbamoyl}ethyl)carbamoyl]-1-methylethyl}carbamoyl)-1-methylethyl]carbamoyl}-3-methylbutyl]carbamoyl}-3-methylbutyl]carbamoyl}-1-methylethyl)carbamoyl]-2-hydroxypropyl]-2-[(2-methyl-1,3-oxazol-4-yl)formamido]decanamide] ({Oxazole4CO(2-Me)}-[Gly(octyl)]T[Aib]LL[Aib][Aib][βAla]-{NH((S)CH(Me)CH2NMe2)})	5.3	3740	193	85.6	4440
CCCCCCCC[C@H](NC(=O)[C@@H]1CCCN1C(=O)CCCCC)C(=O)N[C@@H](CC(C)C)C(=O)NC(C)(C)C(=O)N[C@@H](CC(C)C)C(=O)N[C@@H](CC(C)C)C(=O)NC(C)(C)C(=O)NC(C)(C)C(=O)NCCC(=O)NC1CC1 [Compound 5645, (2S)-N-[(1S)-1-[(1-{[(1S)-1-{[(1S)-1-({1-[(1-{[2-(cyclopropylcarbamoyl)ethyl]carbamoyl}-1-methylethyl)carbamoyl]-1-methylethyl}carbamoyl)-3-methylbutyl]carbamoyl}-3-methylbutyl]carbamoyl}-1-methylethyl)carbamoyl]-3-methylbutyl]-2-{[(2S)-1-hexanoylpyrrolidin-2-yl]formamido}decanamide] (Hexanoyl-P[Gly(octyl)]L[Aib]LL[Aib][Aib][βAla]-NHcPr)	537	4240	168	13.8	1230
CCCCCC(=O)N1CCC[C@H]1C(=O)N[C@@H](CCCCNC(C)=O)C(=O)N[C@@H](CC(C)C)C(=O)NC(C)(C)C(=O)N[C@@H](CC(C)C)C(=O)N[C@@H](CC(C)C)C(=O)NC(C)(C)C(=O)NC(C)(C)C(=O)NCCC(=O)N[C@@H](C)CN(C)C [Compound 5766, (2S)-N-[(1S)-1-[(1-{[(1S)-1-{[(1S)-1-{[1-({1-[(2-{[(2S)-1-(dimethylamino)propan-2-yl]carbamoyl}ethyl)carbamoyl]-1-methylethyl}carbamoyl)-1-methylethyl]carbamoyl}-3-methylbutyl]carbamoyl}-3-methylbutyl]carbamoyl}-1-methylethyl)carbamoyl]-3-methylbutyl]-6-acetamido-2-{[(2S)-1-hexanoylpyrrolidin-2-yl]formamido}hexanamide] (Hexanoyl-PK(Ac)L[Aib]LL[Aib][Aib][βAla]-{NH((S)CH(Me)CH2NMe2)})	3	3780	752	135	4870
CCCCCC(=O)N1CCC[C@H]1C(=O)N[C@@H](CCCCNC(=O)c1cc2ccc(OC)cc2oc1=O)C(=O)N[C@@H](CC(C)C)C(=O)NC(C)(C)C(=O)N[C@@H](CC(C)C)C(=O)N[C@@H](CC(C)C)C(=O)NC(C)(C)C(=O)NC(C)(C)C(=O)NCCC(=O)N[C@@H](C)CN(C)C [Compound 5767, (2S)-N-[(1S)-1-[(1-{[(1S)-1-{[(1S)-1-{[1-({1-[(2-{[(2S)-1-(dimethylamino)propan-2-yl]carbamoyl}ethyl)carbamoyl]-1-methylethyl}carbamoyl)-1-methylethyl]carbamoyl}-3-methylbutyl]carbamoyl}-3-methylbutyl]carbamoyl}-1-methylethyl)carbamoyl]-3-methylbutyl]-2-{[(2S)-1-hexanoylpyrrolidin-2-yl]formamido}-6-[(7-methoxy-2-oxo-2H-chromen-3-yl)formamido]hexanamide] (Hexanoyl-PK(X16)L[Aib]LL[Aib][Aib][βAla]-{NH((S)CH(Me)CH2NMe2)})	3.5	114	17.8	21.3	508
CCCCCCCC[C@H](NC(=O)[C@@H]1CCCN1C(=O)CCCCC)C(=O)N[C@@H](CC(C)C)C(=O)NC(C)(C)C(=O)N[C@@H](CC(C)C)C(=O)N[C@@H](CC(C)C)C(=O)NC(C)(C)C(=O)NC(C)(C)C(=O)NCCC(=O)NC1(CN(C)C)CCC1 [Compound 5882, (2S)-N-[(1S)-1-[(1-{[(1S)-1-{[(1S)-1-({1-[(1-{[2-({1-[(dimethylamino)methyl]cyclobutyl}carbamoyl)ethyl]carbamoyl}-1-methylethyl)carbamoyl]-1-methylethyl}carbamoyl)-3-methylbutyl]carbamoyl}-3-methylbutyl]carbamoyl}-1-methylethyl)carbamoyl]-3-methylbutyl]-2-{[(2S)-1-hexanoylpyrrolidin-2-yl]formamido}decanamide] (Hexanoyl-P[Gly(octyl)]L[Aib]LL[Aib][Aib][βAla]-{NH(1-CH2NMe2-cBu)})	20500	42600	46800	0.9	44.1
